Columns and labels:
[1] = in vivo; cited from earlier work
[2] = reboxetine elimination half-life and time to steady state; format: in vivo; conditions: about four elimination half lives after initiation of continuous intermittent dosing
Procedure: Generally, continuous dosing for a period equal to about four elimination half lives is required to obtain steady-state conditions. Accordingly, steady-state conditions are approached at approximately 52 hours following initiation of a continuous intermittent dosing regimen. Mean steady-state plasma reboxetine concentrations following dosing every 24 hours with 4 mg doses of reboxetine methanesulfonate in two different sustained release dosage forms, having T90 values of about 9 hours and about 18 hours, respectively, and following dosing every 12 hours with 2 mg doses of reboxetine methanesulfonate (total daily dose=4 mg) in an immediate release dosage form for a period of four days (96 hours) were simulated.

For `CCOc1ccccc1OC(c1ccccc1)C1CNCCO1` (stereo not drawn) [Reboxetine, 2-[α(2-ethoxyphenoxy)benzyl]morpholine], the “elimination half-life (t1/2)” value [1] is listed as “about 13 hours” and the “time at which steady-state conditions are approached” value [2] is listed as “approximately 52 hours”.

— patent US6630165B2, “Methods for providing effective reboxetine therapy with once-a-day dosing” (priority 1999, dated 2003)
